Data from the supplement of paper PMC10307832.

How the values were obtained:
Experiment in all cases: relative viability (nuclei count vs DMSO), 5 days (fraction); higher = more cells survive
IPA-3 + OSI-027 = compound: C1=CC=C2C(=C1)C=CC(=C2SSC3=C(C=CC4=CC=CC=C43)O)O [IPA-3] + COc1cccc2cc(-c3nc([C@H]4CC[C@H](C(=O)O)CC4)n4ncnc(N)c34)[nH]c12 [OSI-027] (partner 0.5 µM)
Method in brief: (§1)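 Nuclei were stained with Hoechst during a one-step fixation (final 0.05% Triton X-100, 1% formaldehyde, 1 ug/ml Hoechst) carried out 5 days after dosing, then counted on 4× images. The cells, lung cancer lines in 1536-well plates, had been dosed by pin tool the day after seeding with one drug alone or a fixed anchor-drug dose plus five library-drug doses (not always all listed) in √10 steps. Relative viability is the nuclei count in treated wells divided by that in vehicle wells, and each value is the median of duplicate plates.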

IPA-3 + Vorinostat = compound: C1=CC=C2C(=C1)C=CC(=C2SSC3=C(C=CC4=CC=CC=C43)O)O [IPA-3] + O=C(CCCCCCC(=O)Nc1ccccc1)NO [Vorinostat] (partner 1 µM)
Method in brief: as §1

Doramapimod + OSI-027 = compound: Cc1ccc(-n2nc(C(C)(C)C)cc2NC(=O)Nc2ccc(OCCN3CCOCC3)c3ccccc23)cc1 [Doramapimod] + COc1cccc2cc(-c3nc([C@H]4CC[C@H](C(=O)O)CC4)n4ncnc(N)c34)[nH]c12 [OSI-027] (partner 0.5 µM)
Method in brief: as §1

RAF265 + Alpelisib = compound: Cn1c(Nc2ccc(C(F)(F)F)cc2)nc2cc(Oc3ccnc(-c4ncc(C(F)(F)F)[nH]4)c3)ccc21 [RAF265] + Cc1nc(NC(=O)N2CCC[C@H]2C(N)=O)sc1-c1ccnc(C(C)(C)C(F)(F)F)c1 [Alpelisib] (partner 2 µM)
Method in brief: as §1

Row | Cell Line | relative viability (IPA-3 + OSI-027; first compound 0.2 µM) | relative viability (IPA-3 + OSI-027; first compound 0.6325 µM) | relative viability (IPA-3 + OSI-027; first compound 2 µM) | relative viability (IPA-3 + OSI-027; first compound 6.325 µM) | relative viability (IPA-3 + OSI-027; first compound 20 µM) | relative viability (IPA-3 + Vorinostat; first compound 0.2 µM) | relative viability (IPA-3 + Vorinostat; first compound 0.6325 µM) | relative viability (IPA-3 + Vorinostat; first compound 2 µM) | relative viability (IPA-3 + Vorinostat; first compound 6.325 µM) | relative viability (IPA-3 + Vorinostat; first compound 20 µM) | relative viability (Doramapimod + OSI-027; first compound 0.02 µM) | relative viability (Doramapimod + OSI-027; first compound 0.06325 µM) | relative viability (Doramapimod + OSI-027; first compound 0.2 µM) | relative viability (Doramapimod + OSI-027; first compound 0.6325 µM) | relative viability (Doramapimod + OSI-027; first compound 2 µM) | relative viability (RAF265 + Alpelisib; first compound 0.01 µM) | relative viability (RAF265 + Alpelisib; first compound 0.03162 µM) | relative viability (RAF265 + Alpelisib; first compound 0.1 µM) | relative viability (RAF265 + Alpelisib; first compound 0.3162 µM) | relative viability (RAF265 + Alpelisib; first compound 1 µM)
1 | NCI-H2087 | 0.616 | 0.543 | 0.586 | 0.602 | 0.642 | 0.72 | 0.841 | 0.727 | 0.668 | 0.821 | 0.567 | 0.449 | 0.51 | 0.655 | 0.506 | 0.861 | 0.89 | 0.909 | 0.709 | 0.677
2 | LU99A | 0.273 | 0.323 | 0.286 | 0.323 | 0.315 | 0.642 | 0.4 | 0.459 | 0.461 | 0.379 | 0.299 | 0.341 | 0.261 | 0.344 | 0.272 | 0.474 | 0.384 | 0.347 | 0.252 | 0.21
3 | BEN | 0.309 | 0.295 | 0.288 | 0.302 | 0.333 | 0.594 | 0.59 | 0.586 | 0.686 | 0.568 | 0.317 | 0.309 | 0.33 | 0.236 | 0.316 | 1.08 | 1.05 | 1.2 | 1.1 | 0.814
4 | SK-LU-1 | 0.361 | 0.347 | 0.341 | 0.345 | 0.354 | 0.902 | 0.779 | 0.643 | 0.75 | 0.852 | 0.332 | 0.382 | 0.379 | 0.35 | 0.383 | 0.972 | 0.494 | 0.493 | 0.506 | 0.363
5 | NCI-H1975 | 0.936 | 0.732 | 0.675 | 0.762 | 0.706 | 0.791 | 0.672 | 0.712 | 0.83 | 0.831 | 0.703 | 0.741 | 0.802 | 0.792 | 0.663 | 0.589 | 0.427 | 0.306 | 0.234 | 0.173
6 | RERF-LC-KJ | 0.668 | 0.563 | 0.58 | 0.554 | 0.619 | 0.829 | 0.729 | 0.726 | 0.653 | 0.696 | 0.624 | 0.543 | 0.603 | 0.6 | 0.554 | 0.791 | 0.573 | 0.851 | 0.625 | 0.584
7 | NCI-H441 | 0.819 | 0.613 | 0.527 | 0.54 | 0.426 | 0.881 | 0.637 | 0.748 | 0.731 | 0.948 | 0.709 | 0.512 | 0.591 | – | 0.475 | 0.793 | – | 0.429 | 0.392 | 0.311
8 | LCLC-103H | 0.442 | 0.444 | 0.463 | 0.486 | 0.505 | 0.849 | 0.807 | 0.805 | 0.865 | 0.867 | 0.444 | 0.424 | 0.386 | 0.422 | 0.396 | 0.862 | 1.02 | 0.854 | 0.745 | 0.461
9 | HCC-78 | 0.419 | 0.407 | 0.641 | 0.382 | 0.353 | 0.464 | 0.437 | 0.476 | 0.442 | 0.489 | 0.372 | 0.362 | 0.365 | 0.358 | 0.299 | 0.33 | 0.358 | 0.432 | 0.291 | 0.249
10 | NCI-H1915 | 0.567 | 0.564 | 0.626 | 0.582 | 0.61 | 0.581 | 0.497 | 0.505 | 0.492 | 0.533 | 0.591 | 0.622 | 0.671 | 0.606 | 0.561 | 1.07 | 0.945 | 0.908 | 0.543 | 0.296
